Values of other authors in US20240000694A1, “Methods and Materials for Matching Chemistry of Individuals and Human Melanin” (Northwestern University, priority 2022, published 2024).

pKa of —COOH: 1.91
SMILES: N[C@@H](CSSC[C@H](N)C(=O)O)C(=O)O [cystine]
